We go through four compounds from patent US10294202B2, “Pyrrolidinones as herbicides” (FMC Corporation, priority 2013, dated 2019).

Experiment [1] concerns corn. Briefly: Test A pre-/postemergence herbicide test. Type of experiment: in vivo, Zea mays. Conditions: for Corn plant response rating: Preemergence, visual rating on 0 to 100 scale (0 no effect, 100 complete control). The method in brief:
(§1)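 Seeds sown in loam soil/sand blend received a preemergence directed soil spray of test chemical in non-phytotoxic solvent with surfactant; postemergence plants (2–10 cm, one- to two-leaf stage) were sprayed with the same formulation. After about 10 days in greenhouse, injury was rated visually versus untreated controls, 0 (no effect) to 100 (complete control).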

A further experiment deals with giant foxtail. Put plainly: Test A pre-/postemergence herbicide test. Conditions: for Foxtail, Giant plant response rating: Preemergence, visual rating on 0 to 100 scale (0 no effect, 100 complete control). The experiment is classed as in vivo, Setaria faberii. The method in brief: as §1
For experiment [2], the system named is barnyardgrass. Put plainly: Test A pre-/postemergence herbicide test. Type of experiment: in vivo, Echinochloa crus-galli. Conditions: for Barnyardgrass plant response rating: Preemergence, visual rating on 0 to 100 scale (0 no effect, 100 complete control). The procedure, abridged: as §1
The subject of a further experiment is ryegrass, Italian. Briefly: Test C pre-/postemergence herbicide test. The experiment is classed as in vivo, Lolium multiflorum. Conditions: Preemergence. The source says: (§2) Seeds of plant species selected from blackgrass (Alopecurus myosuroides), ryegrass, Italian (Italian ryegrass, Lolium multiflorum), wheat (winter wheat, Triticum aestivum), galium (catchweed bedstraw, Galium aparine), corn (Zea mays), crabgrass, large (large crabgrass, Digitaria sanguinalis), foxtail, giant (giant foxtail, Setaria faberii), johnsongrass (Sorghum halepense), lambsquarters (Chenopodium album), morningglory (Ipomoea coccinea), nutsedge, yellow (yellow nutsedge, Cyperus esculentus), pigweed (Amaranthus retroflexus), ragweed (common ragweed, Ambrosia elatior), soybean (Glycine max), barnyardgrass (Echinochloa crus-galli), oilseed rape (Brassica napus), waterhemp (common waterhemp, Amaranthus rudis), kochia (Kochia scoparia), oat, wild (wild oat, Avena fatua), surinam grass (Brachiaria decumbens), foxtail, green (green foxtail, Setaria viridis), goosegrass (Eleusine indica), bromegrass, downy (downy bromegrass, Bromus tectorum), nightshade (eastern black nightshade, Solanum ptycanthum), cocklebur (common cocklebur, Xanthium strumarium), cupgrass, woolly (woolly cupgrass, Eriochloa villosa), bermudagrass (Cynodon dactylon), sunflower, (common oilseed sunflower, Helianthus annuus), Russian thistle (Salsola kali) and velvetleaf (Abutilon theophrasti) were planted into a blend of loam soil and sand and treated preemergence with test chemicals formulated in a non-phytotoxic solvent mixture which included a surfactant. At the same time, plants selected from these crop and weed species and also barley (winter barley, Hordeum vulgare), […]), chickweed (common chickweed, Stellaria media), deadnettle (henbit deadnettle, Lamium amplexicaule), and canarygrass (littleseed canarygrass, Phalaris minor) were planted in pots containing Redi-Earth® planting medium (Scotts Company, 14111 Scottslawn Road, Marysville, Ohio 43041) comprising spaghnum peat moss, vermiculite, wetting agent and starter nutrients and treated with postemergence applications of test chemicals formulated in the same manner. Plants ranged in height from 2 to 18 cm (1- to 4-leaf stage) for postemergence treatments. Treated plants and controls were maintained in a greenhouse for 13 to 15 days, after which time all species were compared to controls and visually evaluated. Plant response ratings, summarized in Table C, are based on a scale of 0 to 100 where 0 is no effect and 100 is complete control. A dash (-) response means no test result.

The next experiment deals with nutsedge, yellow. Put plainly: Test C pre-/postemergence herbicide test. Type of experiment: in vivo, Cyperus esculentus. The note with it: Preemergence.
Excerpt: as §2

Experiment [3] concerns corn. Put plainly: Test C pre-/postemergence herbicide test. Type of experiment: in vivo, Zea mays. Conditions: Preemergence.
Excerpt: as §2

For another experiment, the system named is soybean. Briefly: Test C pre-/postemergence herbicide test. The experiment is classed as in vivo, Glycine max. The note with it: Preemergence.
Excerpt: as §2

The test system of experiment [4] is barnyardgrass. Put plainly: Test C pre-/postemergence herbicide test. The experiment is classed as in vivo, Echinochloa crus-galli. The note with it: Preemergence.
Excerpt: as §2

The next experiment deals with lambsquarters. Put plainly: Test C pre-/postemergence herbicide test. Type of experiment: in vivo, Chenopodium album. The note with it: Preemergence.
Excerpt: as §2

The test system of a further experiment is waterhemp. Briefly: Test C pre-/postemergence herbicide test. The note with it: Preemergence. Type of experiment: in vivo, Amaranthus rudis.
Excerpt: as §2

Where [5] appears, read: Postemergence, 125 g ai/ha, 0 to 100 scale, 0 no effect, 100 complete control.
Setting [6] is: Postemergence, 500 g ai/ha, 0 to 100 scale (0 no effect, 100 complete control).
[7] abbreviates: preemergence, 500 g ai/ha, 0 to 100 scale.
[8] abbreviates: preemergence, 500 g ai/ha, 0 to 100 scale (0 no effect, 100 complete control).
Where [9] appears, read: 125 g ai/ha, scale 0 to 100 (0 no effect, 100 complete control).
[10] abbreviates: 125 g ai/ha, visual rating, 0 to 100 scale, 0 no effect, 100 complete control, approximately 10 days, preemergence.
Where [11] appears, read: Postemergence, 125 g ai/ha, 0 to 100 scale, 0 is no effect, 100 is complete control.
Where [12] appears, read: preemergence, 500 g ai/ha, 0 to 100 scale, 0 is no effect and 100 is complete control.
Where [13] appears, read: 31 g ai/ha, scale 0 to 100, 0 is no effect and 100 is complete control.
The mark [14] stands for this setting: 62 g ai/ha, scale 0 to 100 (0 no effect, 100 complete control).

Take `O=C1NCC(c2cccc(C(F)(F)F)c2)C1C(=O)Nc1ccccc1F` (racemic) [Compound 3]: the “Plant response rating, Corn” value turned out to be 0 in the experiment with corn [1] (setting [5]), 60 in the experiment with corn [1] (setting [6]) and 50 with corn [1] (setting [7]). Besides, the “Corn plant response rating” value with corn [1] (125 g ai/ha) is on record as 0. In addition, the “Plant response rating, Foxtail, Giant” value is on record as 60 in the experiment with giant foxtail (setting [5]), 80 with giant foxtail (setting [6]) and 90 in the experiment on giant foxtail (setting [7]). For the same compound, in the experiment with giant foxtail (125 g ai/ha), the “Foxtail, Giant plant response rating” value amounted to 90. Moreover, the “Plant response rating, Barnyardgrass” value with barnyardgrass [2] (setting [5]) was 70; with barnyardgrass [2] (setting [6]), 80; in the experiment with barnyardgrass [2] (setting [8]) it was 80. Also, the “Barnyardgrass plant response rating” value with barnyardgrass [2] (125 g ai/ha) is listed as 60.
With `O=C1NCC(c2ccc(F)c(F)c2)C1C(=O)Nc1cccc(F)c1` (racemic) [Compound 12], the “Plant response rating, Corn” value with corn [1] (setting [5]), in the experiment on corn [1] (setting [6]) and in the experiment with corn [1] (setting [7]) was 0 in each case. Moreover, the “Corn plant response rating” value with corn [1] (125 g ai/ha) is on record as 0. Further, the “Plant response rating, Foxtail, Giant” value with giant foxtail (setting [5]) is 60; with giant foxtail (setting [6]), 80; in the experiment on giant foxtail (setting [7]), 90. For the same compound, the “Foxtail, Giant plant response rating” value in the experiment with giant foxtail (125 g ai/ha) was 70. The “Plant response rating, Barnyardgrass” value came out at 60 with barnyardgrass [2] (setting [5]), 90 with barnyardgrass [2] (setting [6]) and 90 in the experiment on barnyardgrass [2] (setting [8]). Besides, the “Barnyardgrass plant response rating” value with barnyardgrass [2] (125 g ai/ha) is recorded as 60.
For `O=C1NCC(c2ccc(F)cc2)C1C(=O)Nc1ccccc1F` (racemic) [Compound 16], the “Plant response rating, Corn” value in the experiment with corn [1] (setting [5]) amounted to 0; with corn [1] (setting [6]) it was 30; in the experiment with corn [1] (setting [7]), 30; with corn [3] (62 g ai/ha, scale 0 to 100), 0; in the experiment with corn [3] (setting [9]) it was 5; with corn [3] (250 g ai/ha, scale 0 to 100 (0 no effect, 100 complete control)) it was 10. Moreover, the “Corn plant response rating” value was 0 in the experiment on corn [1] (125 g ai/ha) and 0 in the experiment with corn [3] (31 g ai/ha, scale 0 to 100 (0 no effect, 100 complete control)). For the same compound, the “Plant response rating, Ryegrass, Italian” value in the experiment on ryegrass, Italian (62 g ai/ha, scale 0 to 100) came to 0. The results for the “Plant response rating, Foxtail, Giant” value in the experiment with giant foxtail (setting [5]), in the experiment on giant foxtail (setting [6]) and in the experiment with giant foxtail (setting [7]) were 60, 90 and 90, respectively. The “Foxtail, Giant plant response rating” value in the experiment with giant foxtail (125 g ai/ha) is 90. Further, the results for the “Plant response rating, Barnyardgrass” value in the experiment on barnyardgrass [2] (setting [5]), with barnyardgrass [2] (setting [6]) and in the experiment on barnyardgrass [2] (setting [8]) were 70, 90 and 90, respectively. In the experiment with barnyardgrass [2] (125 g ai/ha), the “Barnyardgrass plant response rating” value amounted to 80. The “Plant response rating, Nutsedge, Yellow” value stood at 0 in the experiment with nutsedge, yellow (62 g ai/ha, scale 0 to 100) and 0 in the experiment on nutsedge, yellow (setting [9]). For the same compound, the “Plant response rating, Soybean” value with soybean (62 g ai/ha, scale 0 to 100) stood at 0; in the experiment with soybean (setting [9]) it was 0.
As to `O=C1NCC(c2cccc(C(F)(F)F)c2)C1C(=O)Nc1ccccc1Cl` (racemic) [Compound 189], the “Plant response rating, Corn” value was 0 in the experiment with corn [1] (setting [10]); 0 in the experiment on corn [1] (setting [11]); 0 with corn [1] (setting [12]); 40 with corn [3] (setting [9]); 0 with corn [3] (16 g ai/ha, scale 0 to 100). In addition, the “Corn plant response rating (0 to 100 scale, 0 is no effect, 100 is complete control)” value in the experiment on corn [1] (Postemergence, 500 g ai/ha) was 60. Further, the “Ryegrass, Italian plant response rating” value in the experiment on ryegrass, Italian (setting [13]) was found to be 0; in the experiment with ryegrass, Italian (setting [14]), 30. The “Plant response rating, Ryegrass, Italian” value with ryegrass, Italian (setting [9]) worked out at 45; with ryegrass, Italian (16 g ai/ha, scale 0 to 100) it was 0. Moreover, the “Plant response rating, Foxtail, Giant” value in the experiment with giant foxtail (setting [10]) was 90; in the experiment on giant foxtail (setting [11]), 70; in the experiment with giant foxtail (setting [12]), 90. In addition, in the experiment on giant foxtail (Postemergence, 500 g ai/ha), the “Foxtail, Giant plant response rating (0 to 100 scale, 0 is no effect, 100 is complete control)” value came to 90. Moreover, the “Barnyardgrass plant response rating” value in the experiment on barnyardgrass [4] (setting [13]) stood at 85. In addition, the “Plant response rating, Barnyardgrass” value was 90 in the experiment with barnyardgrass [4] (62 g ai/ha, scale 0 to 100); 90 with barnyardgrass [4] (setting [9]); 45 with barnyardgrass [4] (16 g ai/ha, scale 0 to 100); 80 in the experiment on barnyardgrass [2] (setting [10]); 90 in the experiment on barnyardgrass [2] (setting [11]); 90 in the experiment on barnyardgrass [2] (setting [12]). For the same compound, the “Barnyardgrass plant response rating (0 to 100 scale, 0 is no effect, 100 is complete control)” value in the experiment on barnyardgrass [2] (Postemergence, 500 g ai/ha) is reported as 90. Besides, the “Nutsedge, Yellow plant response rating” value is 0 with nutsedge, yellow (setting [13]) and 0 in the experiment on nutsedge, yellow (setting [14]). Also, the “Plant response rating, Nutsedge, Yellow” value was 0 with nutsedge, yellow (setting [9]) and 0 in the experiment on nutsedge, yellow (16 g ai/ha, scale 0 to 100). Moreover, the “Lambsquarters plant response rating” value in the experiment with lambsquarters (setting [13]) and in the experiment with lambsquarters (setting [14]) was 0 throughout. Also, the “Plant response rating, Lambsquarters” value was determined as 5 in the experiment with lambsquarters (setting [9]) and 0 in the experiment with lambsquarters (16 g ai/ha, scale 0 to 100). The “Corn plant response rating” value in the experiment on corn [3] (setting [13]) and in the experiment with corn [3] (setting [14]) was 0 throughout. In addition, the “Waterhemp plant response rating” value with waterhemp (setting [13]) came to 0; with waterhemp (setting [14]), 5. The “Plant response rating, Waterhemp” value in the experiment on waterhemp (setting [9]) stood at 0; in the experiment on waterhemp (16 g ai/ha, scale 0 to 100), 0. Also, the “Soybean plant response rating” value stood at 5 in the experiment with soybean (setting [13]) and 10 with soybean (setting [14]). Moreover, the “Plant response rating, Soybean” value in the experiment with soybean (setting [9]) was 0; in the experiment on soybean (16 g ai/ha, scale 0 to 100), 0.
